What follows are compounds tested against T1, Prostaglandin E2 receptor EP1 subtype (Homo sapiens, UniProt P34995) (assay: Displacement of [3H]PGE2 from human recombinant EP1 receptor expressed in CHO cells).
T1 sequence (P34995 whole entry): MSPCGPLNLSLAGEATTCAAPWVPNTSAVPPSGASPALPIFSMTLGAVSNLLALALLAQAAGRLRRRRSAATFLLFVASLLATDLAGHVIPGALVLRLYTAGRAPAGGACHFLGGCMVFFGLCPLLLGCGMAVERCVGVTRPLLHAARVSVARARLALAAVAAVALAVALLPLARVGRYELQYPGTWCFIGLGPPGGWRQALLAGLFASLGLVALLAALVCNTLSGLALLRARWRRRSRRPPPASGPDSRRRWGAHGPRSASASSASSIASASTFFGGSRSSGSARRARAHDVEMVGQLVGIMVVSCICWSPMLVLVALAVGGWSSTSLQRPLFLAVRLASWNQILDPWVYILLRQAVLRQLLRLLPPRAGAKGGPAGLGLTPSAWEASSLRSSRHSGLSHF
Format: cell-based

IC50 | SMILES
20 nM | CNC(=O)c1cccc(-n2c(C)ccc2-c2cc(Br)ccc2OCc2ccc(F)cc2F)c1
10 nM | Cc1ccc(-c2cc(Br)ccc2OCc2ccc(F)cc2F)n1-c1cccc(C(=O)N(C)C)c1
2.51 nM | Cc1ccc(-c2cc(Cl)ccc2OCc2ccccc2)n1-c1ccc(C(=O)NCc2ccccn2)cc1
2.51 nM | Cc1ccc(-c2cc(Cl)ccc2OCc2ccccc2)n1-c1cccc(C(=O)NS(=O)(=O)c2ccccc2)c1
2.51 nM | Cc1ccc(-c2ccccc2OCc2ccccc2)n1-c1cccc(C(=O)NS(=O)(=O)c2ccccc2)c1
63.1 nM | Cc1ccc(-c2cc(Cl)ccc2OCc2ccccc2)n1-c1ccc(C(=O)NCc2ccncc2)cc1
7.94 nM | Cc1ccc(-c2cc(Cl)ccc2OCc2ccccc2)n1-c1ccc(S(=O)(=O)NC(=O)c2ccccc2)cc1
25.1 nM | Cc1ccc(-c2cc(Br)ccc2OCc2ccc(F)cc2F)n1-c1cccc(C(O)(C(F)(F)F)C(F)(F)F)c1
> 1000 nM | Cc1ccc(-c2ccccc2OCc2ccccc2)n1-c1cccc(S(C)(=O)=O)c1
126 nM | Cc1ccc(-c2cc(Cl)ccc2OCc2ccccc2)n1-c1cccc(S(C)(=O)=O)c1
200 nM | Cc1ccc(-c2cc(Br)ccc2OCc2ccccc2)n1-c1cccc(S(C)(=O)=O)c1
20 nM | Cc1ccc(-c2cc(Cl)ccc2OCc2ccccc2)n1-c1ccc(S(C)(=O)=O)cc1
31.6 nM | Cc1ccc(-c2cc(Br)ccc2OCc2ccccc2)n1-c1ccc(S(C)(=O)=O)cc1
7.94 nM | Cc1ccc(-c2cc(Br)ccc2OCc2ccc(F)cc2F)n1-c1ccc(C(N)=O)cc1
3.98 nM | CNC(=O)c1ccc(-n2c(C)ccc2-c2cc(Br)ccc2OCc2ccc(F)cc2F)cc1
15.8 nM | Cc1ccc(-c2cc(Br)ccc2OCc2ccc(F)cc2F)n1-c1ccc(C(=O)N(C)C)cc1
25.1 nM | Cc1ccc(-c2cc(Cl)ccc2OCc2ccccc2)n1-c1cccc(C(=O)NCc2ccccc2)c1
63.1 nM | Cc1ccc(-c2cc(Cl)ccc2OCc2ccccc2)n1-c1cccc(C(=O)NCc2cccnc2)c1
63.1 nM | Cc1ccc(-c2cc(Cl)ccc2OCc2ccccc2)n1-c1cccc(C(=O)NCc2ccncc2)c1
63.1 nM | Cc1ccc(-c2cc(Br)ccc2OCc2ccc(F)cc2F)n1-c1cccc(-c2nc3ccccc3[nH]2)c1
39.8 nM | Cc1nnc(-c2cccc(-n3c(C)ccc3-c3cc(Br)ccc3OCc3ccc(F)cc3F)c2)o1
200 nM | Cc1nc(-c2cccc(-n3c(C)ccc3-c3cc(Br)ccc3OCc3ccc(F)cc3F)c2)no1
63.1 nM | CC(=O)Nc1cccc(-n2c(C)ccc2-c2cc(Cl)ccc2OCc2ccccc2)c1
39.8 nM | Cc1ccc(-c2cc(Br)ccc2OCc2ccc(F)cc2F)n1-c1ccc(-c2cnc[nH]2)cc1
1.58 nM | Cc1ccc(-c2cc(Cl)ccc2OCc2ccccc2)n1-c1ccc(C(=O)N[C@H](C)c2ccccc2)cc1
158 nM | Cc1ccc(-c2cc(Br)ccc2OCc2ccc(F)cc2F)n1-c1ccc2c(c1)C(=O)NC2=O

IC50 | SMILES
631 nM | Cc1ccc(-c2ccccc2OCc2ccc(F)cc2F)n1-c1ccc2nn[nH]c2c1
25.1 nM | Cc1ccc(-c2cc(Cl)ccc2OCc2ccccc2)n1-c1ccc2nn[nH]c2c1
50.1 nM | CCN(CC)C(=O)c1ccc(-n2c(C)ccc2-c2cc(Br)ccc2OCc2ccc(F)cc2F)cc1
25.1 nM | Cc1ccc(-c2cc(Cl)ccc2OCc2ccccc2)n1-c1ccc(C(=O)NCc2ccccc2)cc1
39.8 nM | Cc1ccc(-c2cc(Cl)ccc2OCc2ccccc2)n1-c1ccc2cn[nH]c2c1
126 nM | Cc1ccc(-c2cc(Br)ccc2OCc2ccc(F)cc2F)n1-c1cccc(-c2cccnc2)c1
251 nM | Cc1ccc(-c2cc(Br)ccc2OCc2ccc(F)cc2F)n1-c1cccc(-c2ccccn2)c1
5.01 nM | Cc1ccc(-c2cc(Cl)ccc2OCc2ccccc2)n1-c1ccc(C(=O)N[C@@H](C)c2ccccc2)cc1
316 nM | Cc1ccc(-c2cc(Cl)ccc2OCc2ccccc2)n1-c1cccc(C(=O)N[C@@H](C)c2ccccc2)c1
3.98 nM | Cc1ccc(-c2cc(Br)ccc2OCc2ccc(F)cc2F)n1-c1cccc(C(=O)NS(C)(=O)=O)c1
5.01 nM | Cc1noc(C)c1S(=O)(=O)NC(=O)c1cccc(-n2c(C)ccc2-c2ccccc2OCc2ccccc2)c1
501 nM | Cc1ccc(-c2cc(Cl)ccc2OCc2ccccc2)n1-c1ccc(-n2cncn2)cc1
501 nM | Cc1ccc(-c2cc(Br)ccc2OCc2ccc(F)cc2F)n1-c1cccc(C(=O)Nc2ccccc2)c1
39.8 nM | Cc1ccc(-c2cc(Cl)ccc2OCc2ccccc2)n1-c1cccc(C(=O)N[C@H](C)c2ccccc2)c1
39.8 nM | Cc1ccc(-c2cc(Cl)ccc2OCc2ccccc2)n1-c1ccc2[nH]ncc2c1
20 nM | Cc1ccc(-c2cc(Cl)ccc2OCc2ccccc2)n1-c1ccc(S(N)(=O)=O)cc1
501 nM | Cc1ccc(-c2ccccc2OCc2ccc(F)cc2F)n1-c1cccc(C(N)=O)c1
63.1 nM | Cc1ccc(-c2cc(Cl)ccc2OCc2ccccc2)n1-c1cccc(C(N)=O)c1
126 nM | Cc1ccc(-c2cc(Br)ccc2OCc2ccc(F)cc2F)n1-c1cccc(-c2ncccn2)c1
79.4 nM | Cc1ccc(-c2cc(Cl)ccc2OCc2ccccc2)n1-c1cccc(S(=O)(=O)NC(=O)c2ccccc2)c1
50.1 nM | Cc1ccc(-c2cc(Cl)ccc2OCc2ccccc2)n1-c1cccc(C(=O)NCc2ccccn2)c1
12.6 nM | Cc1ccc(-c2cc(Cl)ccc2OCc2ccccc2)n1-c1ccc(C(=O)NCc2cccnc2)cc1
63.1 nM | Cc1cc(=O)[nH]c2cc(-n3c(C)ccc3-c3cc(Cl)ccc3OCc3ccccc3)ccc12
15.8 nM | Cc1ccc(-c2cc(Br)ccc2OCc2ccc(F)cc2F)n1-c1ccc(C(=O)NC(C)(C)C)cc1
501 nM | Cc1ccc(-c2ccccc2OCc2ccccc2)n1-c1ccc(S(C)(=O)=O)cc1

Source: ChEMBL document CHEMBL1148842, “Discovery of novel, non-acidic 1,5-biaryl pyrrole EP1 receptor antagonists” (Bioorg Med Chem Lett, 2007)
